Data: the NIST ThermoML archive (doi:10.1016/j.jct.2009.11.010)

Experiments:
[1] = Liquid, Vibrating tube method
[2] = molar heat capacity at saturation pressure; settings: Liquid

c1ccc2nc3ccccc3cc2c1 [acridine]
Settings | mass density [kg/m3] | molar heat capacity [J/K/mol]
[1], 423.15 K | 1064.9 | –
[1], 448.15 K | 1043.7 | –
[1], 473.15 K | 1023.9 | –
[1], 498.15 K | 1005.1 | –
[1], 523.15 K | 985.4 | –
[1], 548.15 K | 964.8 | –
[2], 460 K | – | 343.6
[2], 480 K | – | 352.2
[2], 500 K | – | 360.6
[2], 520 K | – | 368.7
[2], 540 K | – | 376.4
[2], 560 K | – | 383.8
[2], 580 K | – | 390.8
[2], 600 K | – | 397.3
